Entries after “also recorded” stand apart in the source; their conditions may differ.
What was measured:
[1] = system: human monocyte-derived dendritic cells (MDDCs); test: Surface marker phenotype of human MDDCs by flow cytometry; assay type: cell-based; settings: for effect on CD40 expression: human iMDDCs supplemented with GRO isoform, day 7
Protocol: Human monocyte-derived dendritic cells (MDDCs) were generated from leukaphereses obtained from healthy donors. Peripheral blood mononuclear cells (PBMCs) were purified by Fycoll-Hypaque Plus (GE Health-Pharmacia, Uppsala, Sweden) density centrifugation. CD14^+ monocytes were isolated using the human CD14^+ Cell Isolation Kit (MACS, Miltenyi Biotec, Inc., Auburn, Calif., USA) according to the manufacturer's instructions. The purified CD14^+ cells (1×10^6/mL) were subsequently cultured in 2 mL MSC-CM or α-MEM completed medium with 10% pooled AB-type human serum supplemented with rhGM-CSF (80 ng/mL) and rhIL-4 (80 ng/mL) (Peprotech, NJ) in the presence or absence of GRO chemokines to induce their differentiation into DCs. An additional 1 mL of medium containing the same concentrations of rhGM-CSF and rhIL-4 with or without GRO chemokines was added to each group of cells on day 3. Half-volume of culture medium was replaced with an equal volume of fresh medium containing the same concentrations of rhGM-CSF and rhIL-4 on day 5. Maturation of MDDCs (mature DCs, mMDDCs) was induced by adding 1 μg/mL LPS to the culture medium of iMDDCs on day 5 and cells were further cultured for another 48 hours. Phenotypic changes in immature DCs (iMDDCs) and mature DCs (mMDDCs) were monitored by FACS analysis on day 7. The study protocols were approved by the Institutional Review Board of Human Subject Research Ethics Committee of Academia Sinica (AS-IRB01-10113) and the Institutional Review Board of Research Ethics Committee of National Health Research Institutes (EC 1001101).
(§1) The phenotypic profiles of monocytes, iMDDCs and mMDDCs were obtained by staining 1×10^5 cells with fluorochrome-labeled antibodies (Abs) against CD11c, HLA-DR, CD80, CD86, CD83, CD40, and DC-SIGN. The fluorescence intensity was measured by flow cytometry. The corresponding isotype-matched controls used were FITC-IgG1, FITC-IgG2a, PE-IgG2a, and PE-IgG2b (BD Biosciences, San Jose, Calif., USA). Surface-labeled cells were analyzed using a FACS Calibur-flow cytometer (BD Biosciences). For cell purification, sorting was performed on a FACS Aria cell sorter (BD Biosciences). The purity of individual sorted cell populations was greater than 95%.

[2] = system: immature MDDCs (iDCs); test: Endocytosis test (FITC-dextran uptake); assay type: cell-based, human
Protocol: The endocytic activity of iMDDCs or mMDDCs was measured by analyzing the cellular uptake of FITC-dextran (40 kD, FD40S, Sigma-Aldrich) as quantified by flow cytomerty. Cells (5×10^4 cells/sample/96 well V bottom plate) were incubated in RPMI-1640 medium with 1 mg/mL FITC-dextran for 30 min at 37° C. After incubation, cells were washed twice with staining buffer to remove free reagent then fixed with 1% paraformaldehyde. The signal from FITC-dextran endocytosed by cells was analyzed by FACS. Data analysis was performed using the FlowJo version 5.7.2 software. The signal obtained for cells incubated with medium in the absence of FITC-dextran was used as negative control.

[3] = system: mature MDDCs co-cultured with allogeneic T cells; test: MLR assay (allogeneic T-cell proliferation, [3H]-thymidine); assay type: cell-based, human
Protocol: Monocyte-derived cells (3×10^4) at different stages of differentiation were irradiated at 30 Gy using an X-ray biological irradiator (X-ray R-2000, Rad Source Technologies, Inc, Alpharetta, Ga., USA) and then cultured with purified allogenic CD3 T cells (1:10) in complete culture medium in 96-well U-bottom plate. X-ray irradiated myeloid cells and allogenic T lymphocytes were placed in a humidified CO2 incubator at 37° C. After 96 hours, [^3H]-thymidine (1 μCi) was added to each well containing either monocytes-, iMDDCs-, or mMDDCs mixed with T cells, and further incubated for 16 hours. Cells were then harvested using a Filtermate 96-well harvester and radioactivity (cpm) measured as an index of cell proliferation in a Packard microplate scintillation and luminescence counter (Perkin-Elmer-Packard; Waltham, Mass., USA).

[4] = system: CD11b+ Gr-1+ BMDCs; test: ARG-1 and iNOS expression in mouse BMDCs; assay type: cell-based
Protocol: Total RNA was extracted with the Trizol reagent and converted to cDNA using a ReverTra Ace set (Toyobo Life Science, Osaka, Japan), according to manufacturer's instructions. Real-time PCR analysis was performed using an ABI Prism 7900 system (Applied Biosystems, Foster City, Calif., USA). Samples were treated according to the following program: […], 94° C. for 10 min, and 40 cycles of 95° C. for 15 s and 60° C. for 1 min. Analyses were performed in triplicate. For each sample, the cycle threshold (Ct) values were determined. Results were normalized to the GAPDH gene on the same plate. The levels of mRNA expression in different cell groups were calculated using the 2ΔCt method. Intron-spanning primers specific for each gene were designed. Their sequences are as follows: human GAPDH, […] (forward primer, F, SEQ ID NO:4), […] (reverse primer, R, SEQ ID NO:5); human IL-10, […] (F, SEQ ID NO:6), […] (R, SEQ ID NO:7); human IDO, […] (F, SEQ ID NO:8), TGACCTTTGCCCCACACAT (R, SEQ ID NO:9); human matrix-metallopeptidase-9 (MMP-9), […] (F, SEQ ID NO:10), […] (R, SEQ ID NO:11); human IL-4, […] (F, SEQ ID NO:12), GCCTGTGGAACTGCTGTGC (R, SQ ID NO:13); human IL-12p40, CGGTCATCTGCCGCAAA (F, SEQ ID NO:14), […] (R, SEQ ID NO:15); human TNF-α, […] (F, SEQ ID NO:16), CAGGCAGAAGAGCGTGGTG (R, SEQ ID NO:17); human IFN-γ, […] (F, SEQ ID NO:18), […] (R, SEQ ID NO:19); human Cox2, […] (F, SEQ ID NO:20), […] (R, SEQ ID NO:21); human PD-L1, […] (F, SEQ ID NO:22), […] (R, SEQ ID NO:23); human PD-L2, […] (F, SEQ ID NO:24), […] (R, SEQ ID NO:25); human TGF-β, […] (F, SEQ ID NO:26), […] (R, SEQ ID NO:27); human IL-6, […] (F, SEQ ID NO:28), […] (R, SEQ ID NO:29); IL-1β, […] (F, SEQ ID NO:30), […] (R, SEQ ID NO:31); mouse GAPDH, GATGCAGGGATGATGTTC (F, SEQ ID NO:32), TGCACCACCAACTGCTTAG (R, SEQ ID NO:33); mouse Arginase 1(Arg-1), […] (F, SEQ ID NO:34), […] (R, SEQ ID NO:35); mouse iNOS, […] (F, SEQ ID NO:36), […] (R, SEQ ID NO:37); mouse IFN-γ, […] (F, SEQ ID NO:38), […] (R, SEQ ID NO:39).
(§2) Murine bone marrow-derived dendritic cells (BM-DCs) were harvested and differentiated into dentritic cells as previously described (Song et al., 2011). Briefly, bone marrow cells from C57BL/6 mice were cultured at a density of 2×10^5 cells/mL in petri dishes containing 10 mL of complete RPMI-1640 medium with 200 U/mL (20 ng/mL) recombinant mouse GM-CSF in the presence or absence of recombinant mouse GRO chemokine. On day 3, half of the volume of the culture medium was replaced by complete RPMI medium containing 20 ng/mL of […] combined with or without GRO. On day 6, BMDCs from the different treatment groups were collected from each dish, washed and characterized.

[5] = system: MDDCs; test: Real-time PCR of selected genes in MDDCs from 7-day cultures; assay type: cell-based, human; settings: MDDC differentiation in presence of GRO-γ
Protocol: Total RNA was extracted with the Trizol reagent and converted to cDNA using a ReverTra Ace set (Toyobo Life Science, Osaka, Japan), according to manufacturer's instructions. Real-time PCR analysis was performed using an ABI Prism 7900 system (Applied Biosystems, Foster City, Calif., USA). Samples were treated according to the following program: 5° C. for 2 min, 94° C. for 10 min, and 40 cycles of 95° C. for 15 s and 60° C. for 1 min. Analyses were performed in triplicate. For each sample, the cycle threshold (Ct) values were determined. Results were normalized to the GAPDH gene on the same plate. The levels of mRNA expression in different cell groups were calculated using the 2ΔCt method. Intron-spanning primers specific for each gene were designed. Their sequences are as follows: human GAPDH, […] (forward primer, F, SEQ ID NO:4), […] (reverse primer, R, SEQ ID NO:5); human IL-10, […] (F, SEQ ID NO:6), […] (R, SEQ ID NO:7); human IDO, […] (F, SEQ ID NO:8), TGACCTTTGCCCCACACAT (R, SEQ ID NO:9); human matrix-metallopeptidase-9 (MMP-9), […] (F, SEQ ID NO:10), […] (R, SEQ ID NO:11); human IL-4, […] (F, SEQ ID NO:12), GCCTGTGGAACTGCTGTGC (R, SQ ID NO:13); human IL-12p40, CGGTCATCTGCCGCAAA (F, SEQ ID NO:14), […] (R, SEQ ID NO:15); human TNF-α, […] (F, SEQ ID NO:16), CAGGCAGAAGAGCGTGGTG (R, SEQ ID NO:17); human IFN-γ, […] (F, SEQ ID NO:18), […] (R, SEQ ID NO:19); human Cox2, […] (F, SEQ ID NO:20), […] […]

[6] = system: MDDCs; test: ELISA of cytokines in MDDC supernatants; assay type: cell-based, human; settings: MDDCs differentiated with GRO-γ, recultured 3 days
Protocol: Supernatants from MDDCs alone (5×10^4), CD3^+ purified T-cells alone (isolated by the human CD3^+ Cell Isolation Kit, MACS, Miltenyi Biotec, Inc., 5×10^5), or MDDCs (5×10^4) co-cultured with CD3^+ purified T-cells (5×10^5) were harvested, and the concentrations of IL-4, IL-10, IL-12, INF-γ, IL-6 and TNF-α in supernatants were determined in triplicates using commercial ELISA kits according to the manufacturer's protocols (R&D systems).

[7] = system: IDO in iDCs; test: Intracellular IDO staining, confocal microscopy; assay type: cell-based, human; settings: iDCs differentiated in presence of GRO-γ
Protocol: MDDCs were generated in the presence or absence of GRO-γ and then analyzed for the intracellular expression of the IDO protein. Cells (5×10^4) were plated onto poly-L-lysine-coated glass slides for 15 min, and washed twice quickly with 0.5 mL PBS. Cells were fixed by adding 0.5 mL of 1% paraformaldehyde (Sigma-Aldrich) for 10 minutes, and then subsequently washed with PBS three times and incubated in 0.5 mL of 1% BSA/PBS for 30 min at room temperature. Cells were washed with 0.1% (v/v) NP-40/PBS three times, and then incubated with 0.5% BSA/PBS containing 1:50 diluted mouse anti-human IDO antibody (Chemicon Inc, Temecula, Calif., USA) at room temperature for 1 h. Cells were further washed with 0.1% (v/v) NP-40/PBS to remove unbound antibody, and then incubated with 1:150 diluted anti-mouse IgG conjugated with DyLight 488 (Sigma-Aldrich) for 1 h at room temperature. After three final washes with 0.1% (v/v) NP-40/PBS, the slides were mounted with 10% Glycerol/PBS and sealed with nail polish. Fluorescent images were captured using a Leica TCS SP5 camera (Leica Camera AG, Solms, Germany).

[8] = system: BMDCs from C57BL/6 mice; test: FACS of CD11b+ Gr-1+ cells in mouse BMDCs; assay type: cell-based; settings: GM-CSF with or without GRO-γ, six days
Protocol: as §1, §2

Row | Molecule | reversal of suppressive effect of GRO-γ on selected surface markers ([1]; iDCs and mDCs, SB225002 250 nM pretreatment 30 min plus GRO-γ) | DC-SIGN expression ([1]; iDCs and mDCs, addition of SB225002 with GRO-γ) | blocking of GRO-γ effect on endocytic activity of iDCs ([2]; SB225002 250 nM plus GRO-γ) | blocking of GRO-γ effect on ability of mDCs to stimulate T-cell proliferation ([3]; SB225002 250 nM plus GRO-γ) | reversal of induction of ARG-1 and iNOS genes ([4]; GM-CSF/GRO-γ/SB225002 treated BMDCs) | effect on CD40 expression [1] | surface expression of CD40, CD83, CD80, CD11c, CD86 and DC-SIGN ([1]; iDCs, recombinant GRO-γ 250 ng/mL vs absence) | DC-SIGN expression ([1]; mDCs, addition of GRO-γ) | endocytic activity of iDCs ([2]; GRO-γ 250 ng/mL) | ability of mDCs to stimulate T-cell proliferation in mixed lymphocyte reaction ([3]; GRO-γ 250 ng/mL) | expression levels of IL-10, IL-4, TGF-β, IL-1β, IL-6, COX2, PD-L1, PD-L2, MMP-9 and IDO genes [5] | mRNA levels of TNF-α, IFN-γ and IL-12 [5] | levels of IFN-γ and IL-12 in supernatants [6] | levels of IL-4 and IL-10 in supernatants [6] | intracellular expression of IDO [7] | percentage (frequency) of double positive CD11b+ Gr-1+ cells in BMDCs [8] | protein expression and enzymatic activity of Arg-1 and iNOS ([4]; GRO-γ treated BMDCs) | mRNA levels of ARG-1 and iNOS ([4]; GRO-γ-treated BMDCs vs BMDCs) | expression of the Arg-1 gene, the iNOS gene, and the MDSC-related genes ([4]; presence of GRO-γ during BMDC differentiation)
1 | O=C(Nc1ccc([N+](=O)[O-])cc1O)Nc1ccccc1Br [SB225002, N-(2-Hydroxy-4-nitrophenyl)-N′-(2-bromophenyl) urea, reference compound] | significantly reversed | not affected | blocked | blocked | reversed the induction |  |  |  |  |  |  |  |  |  |  |  |  |  | 
2 | GRO-α: recombinant human GRO chemokine CXCL1 (SEQ ID NO:1), PeproTech |  |  |  |  |  | significant inhibitory effects |  |  |  |  |  |  |  |  |  |  |  |  | 
3 | GRO-γ: recombinant GRO chemokine CXCL3 (SEQ ID NO:3); human from PeproTech, mouse from R&D Systems |  |  |  |  |  | significant inhibitory effects | significantly reduced | not affected | significantly down-regulated | significantly down-regulated | significantly up-regulated | significantly down-regulated | reduced levels | elevated levels | increase in intracellular expression | did not depend on the presence of GRO-γ; also recorded: similar | increased | elevated | up-regulated

— US9415069B2, “Immunosuppressive cells and methods of making and using thereof” (National Health Research Institutes, priority 2012, dated 2016)
